Results as given in US7355051B2, “Piperdine-amino-benzimidazole derivatives as inhibitors of respiratory syncytial virus replication” (Tibotec Pharmaceuticals, priority 2003, dated 2008).
Where two headings read alike, the source gives them in different places.

Assays:
[1] = test system: Respiratory Syncytial Virus; experiment: microbe, parasite or virus in culture; format: cell-based; conditions: for EC50: human respiratory syncytial virus, 168 h
Excerpt: The percent protection against cytopathology caused by viruses (antiviral activity or EC50) achieved by tested compounds and their cytotoxicity (CC50) are both calculated from dose-response curves. The selectivity of the antiviral effect is represented by the selectivity index (SI), calculated by dividing the CC50 (cytotoxic dose for 50% of the cells) by the EC50 (antiviral activity for 50% of the cells).
Automated tetrazolium-based […] assays were used for determination of EC50 and CC50 of test compounds. Flat-bottom, 96-well plastic microtiter trays were filled with 180 μl of Eagle's Basal Medium, supplemented with 5% FCS (0% for FLU) and 20 mM Hepes buffer. Subsequently, stock solutions (7.8× final test concentration) of compounds were added in 45 μl volumes to a series of triplicate wells so as to allow simultaneous evaluation of their effects on virus- and mock-infected cells. Five five-fold dilutions were made directly in the microtiter trays using a robot system. Untreated virus controls, and HeLa cell controls were included in each test. Approximately 100 TCID50 of Respiratory Syncytial Virus was added to two of the three rows in a volume of 50 μl. The same volume of medium was added to the third row to measure the cytotoxicity of the compounds at the same concentrations as those used to measure the antiviral activity. After two hours of incubation, a suspension (4×10^5 cells/ml) of HeLa cells was added to all wells in a volume of 50 μl. The cultures were incubated at 37° C. in a 5% CO2 atmosphere. Seven days after infection the cytotoxicity and the antiviral activity was examined spectrophotometrically. To each well of the microtiter tray, 25 μl of a solution of MTT (3-(4,5-dimethylthiazol-2-yl)-2,5-diphenyltetrazolium bromide) was added. The trays were further incubated at 37° C. for 2 hours, after which the medium was removed from each cup. Solubilization of the formazan crystals was achieved by adding 100 μl 2-propanol. Complete dissolution of the formazan crystals were obtained after the trays have been placed on a plate shaker for 10 min. Finally, the absorbances were read in an eight-channel computer-controlled photometer (Multiskan MCC, Flow Laboratories) at two wavelengths (540 and 690 nm). The absorbance measured at 690 nm was automatically subtracted from the absorbance at 540 nm, so as to eliminate the effects of non-specific absorption.

[2] = Table 1, pEC50 (−log of EC50 in molar units), RSV-infected HeLa cells, MTT read-out seven days after infection, read-out: Activity (converted)
[3] = Table 3, pEC50 (−log of EC50 in molar units), RSV-infected HeLa cells, MTT read-out seven days after infection, read-out: Activity (converted)

Compound | melting point | EC50 [1, 3] | also measured
Cc1cc(C)c2nc(NC3CCN(CCCO)CC3)n(Cc3nc(C)ccc3O)c2c1 [Compound 4, 2-{2-[1-(3-hydroxy-propyl)-piperidin-4-ylamino]-4,6-dimethyl-benzoimidazol-1-ylmethyl}-6-methyl-pyridin-3-ol] | 209 °C | – | EC50 [1, 2]: 7.94 nM
6-methyl-2-[4-methyl-2-(1-methyl-piperidin-4-ylamino)-benzoimidazol-1-ylmethyl]-pyridin-3-ol [Compound 34] | – | – | Activity ([1]; Table 3, pEC50 (−log of EC50 in molar units), RSV-infected HeLa cells, MTT read-out seven days after infection): 6.8
Cc1ccc(O)c(Cn2c(NC3CCN(CCN4CCCC4)CC3)nc3c(C)cccc32)n1 [Compound 18, 6-Methyl-2-{4-methyl-2-[1-(2-pyrrolidin-1-yl-ethyl)-piperidin-4-ylamino]-benzoimidazol-1-ylmethyl}-pyridin-3-ol] | 225 °C | 10 nM | –
Cc1ccc(O)c(Cn2c(NC3CCN(CC(O)C(C)C)CC3)nc3c(C)cccc32)n1 (stereo not drawn) [Compound 35, 2-{2-[1-(2-hydroxy-3-methyl-butyl)-piperidin-4-ylamino]-4-methyl-benzoimidazol-1-ylmethyl}-6-methyl-pyridin-3-ol] | 230 °C | 158 nM | –
CCOC(=O)CCN1CCC(Nc2nc3c(C)cccc3n2Cc2nc(C)ccc2O)CC1 [Compound 32, 3-{4-[1-(3-Hydroxy-6-methyl-pyridin-2-ylmethyl)-4-methyl-1H-benzoimidazol-2-ylamino]-piperidin-1-yl}-propionic acid ethyl ester] | 226 °C | 158 nM | –
CCOC(=O)CCN1CCC(Nc2nc3c(C)cc(C)cc3n2Cc2nc(C)ccc2O)CC1 [Compound 10, 3-{4-[1-(3-Hydroxy-6-methyl-pyridin-2-ylmethyl)-4,6-dimethyl-1H-benzoimidazol-2-ylamino]-piperidin-1-yl}-propionic acid ethyl ester] | 172 °C | – | EC50 [1, 2]: 79.4 nM
COc1ccc(OCC(O)CN2CCC(Nc3nc4c(C)cccc4n3Cc3nc(C)ccc3O)CC2)cc1 (stereo not drawn) [Compound 41, 2-(2-{1-[2-hydroxy-3-(4-methoxy-phenoxy)-propyl]-piperidin-4-ylamino}-4-methyl-benzoimidazol-1-ylmethyl)-6-methyl-pyridin-3-ol] | 227 °C | 316 nM | –
Cc1cc(C)c2nc(NC3CCN(CCCS(N)(=O)=O)CC3)n(Cc3nc(C)ccc3O)c2c1 [Compound 1, 3-{4-[1-(3-hydroxy-6-methyl-pyridin-2-ylmethyl)-4,6-dimethyl-1H-benzoimidazol-2-ylamino]-piperidin-1-yl}-propane-1-sulfonic acid amide] | 180 °C | – | EC50 [1, 2]: 2 nM
Cc1ccc(O)c(Cn2c(NC3CCN(CCCS(N)(=O)=O)CC3)nc3c(C)cccc32)n1 [Compound 19, 3-{4-[1-(3-hydroxy-6-methyl-pyridin-2-ylmethyl)-4-methyl-1H-benzoimidazol-2-ylamino]-piperidin-1-yl}-propane-1-sulfonic acid amide] | 250 °C | 12.6 nM | –
Cc1ccc(O)c(Cn2c(NC3CCN(CCC(N)=O)CC3)nc3c(C)cccc32)n1 [Compound 27, 3-{4-[1-(3-Hydroxy-6-methyl-pyridin-2-ylmethyl)-4-methyl-1H-benzoimidazol-2-ylamino]-piperidin-1-yl}-propionamide] | 258 °C | 50.1 nM | –
Cc1cc(C)c2nc(NC3CCN(CCC(N)=O)CC3)n(Cc3nc(C)ccc3O)c2c1 | 212 °C | – | –
Cc1cc(C)c2nc(NC3CCN(CCO)CC3)n(Cc3nc(C)ccc3O)c2c1 [Compound 2, 2-{2-[1-(2-hydroxy-ethyl)-piperidin-4-ylamino]-4,6-dimethyl-benzoimidazol-1-ylmethyl}-6-methyl-pyridin-3-ol] | 177 °C | – | EC50 [1, 2]: 3.16 nM
Cc1ccc(O)c(Cn2c(NC3CCN(CCOC(N)=O)CC3)nc3c(C)cccc32)n1 [Compound 37, Carbamic acid 2-{4-[1-(3-hydroxy-6-methyl-pyridin-2-ylmethyl)-4-methyl-1H-benzoimidazol-2-ylamino]-piperidin-1-yl}-ethyl ester] | 222 °C | 158 nM | –
Cc1ccc(O)c(Cn2c(NC3CCN(CCC(=O)O)CC3)nc3c(C)cccc32)n1.Cl [Compound 33, 3-{4-[1-(3-hydroxy-6-methyl-pyridin-2-ylmethyl)-4-methyl-1H-benzoimidazol-2-ylamino]-piperidin-1-yl}-propionic acid hydrochloride salt] | 245 °C | 158 nM | –
Cc1ccc(O)c(Cn2c(NC3CCN(CCOC(=O)Cc4ccccc4)CC3)nc3c(C)cccc32)n1 [Compound 24, Phenyl-acetic acid 2-{4-[1-(3-hydroxy-6-methyl-pyridin-2-ylmethyl)-4-methyl-1H-benzoimidazol-2-ylamino]-piperidin-1-yl}-ethyl ester] | 207 °C | – | EC50 ([1]; HeLa, read-out: Activity): 31.6 nM
Cc1cc(C)c2c(c1)nc(NC1CCN(CCO)CC1)n2Cc1nc(C)ccc1O [Compound 15, 2-{2-[1-(2-hydroxy-ethyl)-piperidin-4-ylamino]-5,7-dimethyl-benzoimidazol-1-ylmethyl}-6-methyl-pyridin-3-ol] | 143 °C | – | EC50 ([1]; Table 2, pEC50 (−log of EC50 in molar units), RSV-infected HeLa cells, MTT read-out seven days after infection, read-out: Activity (converted)): 398 nM
